pIC50: −log10 of the molar value. Some results are limits rather than exact numbers.

In one experiment the target is T1, KRAS WT (Homo sapiens, UniProt P01116).
T1 construct: made in house; host or cells: E. coli BL21 (DE3)
The experiment can be described thus: HTRF assay, interaction of GST-tagged K-Ras with His-tagged hSOS1 (KRAS wildtype). The class given is biochemical. The conditions noted are these: <500 nM, read-out: Inhibition of KRAS WT (IC50). The source says: (§1) This assay can be also used to assess a selective inhibition or reduction of signaling output of a mutant Ras protein relative to a wildtype, or relative to a different mutant Ras protein. For example, the equilibrium interaction of wildtype KRAS or K-Ras mutant (e.g., wildtype or a mutant thereof) with SOS1 (e.g., hSOS1) can be assessed as a proxy or an indication for the ability of a subject compound to bind and inhibit Ras protein. The HTRF assay detects from (i) a fluorescence resonance energy transfer (FRET) donor (e.g., antiGST-Europium) that is bound to GST-tagged K-Ras mutant to (ii) a FRET acceptor (e.g., anti-6His-XL665) bound to a His-tagged hSOS1.
(§2) The assay buffer can contain ˜5 mM HEPES pH 7.4, ˜150 mM NaCl, ˜1 mM DTT, 0.05% BSA and 0.0025% (v/v) Igepal. A Ras working solution is prepared in an assay buffer containing typically a suitable amount of the protein construct (e.g., GST-tagged K-Ras mutant) and the FRET donor (e.g., antiGST-Eu(K) from Cisbio, France). A SOS1 working solution is prepared in an assay buffer containing suitable amount of the protein construct (e.g., His-hSOS1) and the FRET acceptor (e.g., anti-6His-XL665 from Cisbio, France). A suitable amount of the protein construct will depend on the range of activity or range of IC50 values being detected or under investigation. For detecting an IC50 within a range of 500 nM, the protein constructs of the same range of molarity can be utilized.
(§3) A fixed volume of DMSO with or without test compound is transferred into a 384-well plate. Ras working solution is added to all wells of the test plate. SOS1 working solution is added to all wells except for those that are subsequently filled with inhibitor control solution. Upon incubation for about 10 minutes or longer, the fluorescence is measured with a M1000Pro plate reader (Tecan) using HTRF detection (excitation 337 nm, emission 1: 620 nm, emission 2: 665 nm). Compounds are tested in duplicate at different concentrations (for example, 10 μM, 2.5 μM, 0.63 μM, 0.16 μM, 0.04 μM, 0.01 μM test compound). The ratiometric data (i.e., emission 2 divided by emission 1) is used to calculate IC50 values against Ras using GraphPad Prism (GraphPad software). Signaling output measured in terms of IC50 values can be obtained and a ratio of IC50 against one mutant relative to another mutant can be calculated. For instance, a selective reduction of K-Ras G12S signaling output can be evidenced by a ratio greater than one. In particular, a selective reduction of K-Ras G12S signaling relative to K-Ras WT signaling is evidenced if the ratio of IC50 (against K-Ras WT) to IC50 (against K-Ras G12S) is greater than 1.
(In general: Time-resolved FRET reads energy transfer from a long-lived donor to a nearby acceptor.)

A further experiment addresses T2, KRAS G12S (Homo sapiens, UniProt P01116, G12S).
T2 construct: made in house; host or cells: E. coli BL21 (DE3)
The experiment can be described thus: HTRF assay, interaction of GST-tagged K-Ras with His-tagged hSOS1 (KRAS G12S). The class given is biochemical. The following applies: <500 nM, read-out: Inhibition of KRAS G12S (IC50).
Description: as §1, §2, §3

T1 sequence (P01116 1-188 isoform P01116-2): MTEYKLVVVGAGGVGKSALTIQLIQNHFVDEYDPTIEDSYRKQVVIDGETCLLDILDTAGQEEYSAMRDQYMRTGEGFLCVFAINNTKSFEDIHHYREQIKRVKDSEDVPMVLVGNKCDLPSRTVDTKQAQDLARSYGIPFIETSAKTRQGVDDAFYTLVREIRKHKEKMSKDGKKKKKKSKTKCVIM
T2 sequence (P01116 1-188 isoform P01116-2 G12S): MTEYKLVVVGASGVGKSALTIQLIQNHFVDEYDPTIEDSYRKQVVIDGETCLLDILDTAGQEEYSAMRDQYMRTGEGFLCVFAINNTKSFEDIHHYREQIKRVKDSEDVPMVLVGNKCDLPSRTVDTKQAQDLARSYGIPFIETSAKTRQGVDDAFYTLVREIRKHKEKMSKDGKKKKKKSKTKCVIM

The term pIC50 denotes the IC50 on a negative log10 scale, so that one unit is a factor of ten. On to `N#Cc1c(N)sc2c(F)ccc(-c3c(Cl)c4c5c(nc(OC[C@@]67CCCN6C[C@H](F)C7)nc5c3F)N(CC3CN(C(=O)/C=C/C5COC5)C3)CCO4)c12` [Compound 475, 2-amino-4-(8-chloro-10-fluoro-2-(((2R,7aS)-2-fluorotetrahydro-1H-pyrrolizin-7a(5H)-yl)methoxy)-4-((1-((E)-3-(oxetan-3-yl)acryloyl)azetidin-3-yl)methyl)-5,6-dihydro-4H-[1,4]oxazepino[5,6,7-de]quinazolin-9-yl)-7-fluorobenzo[b] thiophene-3-carbonitrile], for which the pIC50 at KRAS WT and at KRAS G12S was greater than 6.30 in each case.

Consider `C[C@@H]1[C@H](N2CCOc3c(Cl)c(-c4ccc(F)c5sc(N)c(C#N)c45)c(F)c4nc(OC[C@@]56CCCN5C[C@H](F)C6)nc2c34)CCN1C(=O)n1cnc(F)n1` (single isomer, unassigned) [Compound 426], for which the negative logarithm of the IC50 (pIC50) on KRAS WT and at KRAS G12S was greater than 6.30 throughout.

`C[C@@H]1[C@H](N2c3nc(OC[C@@]45CCCN4C[C@H](F)C5)nc4c(F)c(-c5ccc(F)c6sc(N)c(C#N)c56)c(Cl)c(c34)OC[C@@H]2C)CCN1C(=O)n1ccnc1` (single isomer, unassigned) [Compound 432]: the negative logarithm of the IC50 (pIC50) at KRAS WT and at KRAS G12S was greater than 6.30 in each case.

For `C[C@@H]1CCOc2c(Cl)c(-c3ccc(F)c4sc(N)c(C#N)c34)c(F)c3nc(OC[C@@]45CCCN4C[C@H](F)C5)nc(c23)N1C[C@@H]1CN(C(=O)n2ccnc2)[C@@H]1C1(C)CC1` [Compound 455, 4-((5R)-4-(((2S,3R)-1-(1H-imidazole-1-carbonyl)-2-(1-methylcyclopropyl)azetidin-3-yl)methyl)-9-chloro-11-fluoro-2-(((2R,7aS)-2-fluorotetrahydro-1H-pyrrolizin-7a(5H)-yl)methoxy)-5-methyl-4,5,6,7-tetrahydro-[1,5]oxazocino[4,3,2-de]quinazolin-10-yl)-2-amino-7-fluorobenzo [b]thiophene-3-carbonitrile], the negative logarithm of the IC50 (pIC50) at KRAS WT and at KRAS G12S was greater than 6.30 in each case.

For `Cc1cn(C(=O)N2CC[C@@H](N3CCOc4nc(-c5cc(N)c(F)c(C)c5C(F)(F)F)c(F)c5nc(OC[C@@]67CCCN6C[C@H](F)C7)nc3c45)[C@H]2C)c(C)n1` [Compound 487, ((2R,3R)-3-(5-(5-amino-4-fluoro-3-methyl-2-(trifluoromethyl)phenyl)-4-fluoro-2-(((2R,7aS)-2-fluorotetrahydro-1H-pyrrolizin-7a(5H)-yl)methoxy)-8,9-dihydro-10H-7-oxa-1,3,6,10-tetraazacyclohepta[de]naphthalen-10-yl)-2-methylpyrrolidin-1-yl)(2,4-dimethyl-1H-imidazol-1-yl) methanone], the pIC50 at KRAS WT and on KRAS G12S was greater than 6.30 throughout.

With `C[C@H](O)[C@H]1COc2c(Cl)c(-c3ccc(F)c4sc(N)c(C#N)c34)c(F)c3nc(OC[C@@]45CCCN4C[C@H](F)C5)nc(c23)N1C[C@@H]1CN(C(=O)n2ccnc2)[C@@H]1C` (single isomer, unassigned) [Compound 446], the negative logarithm of the IC50 (pIC50) on KRAS WT and on KRAS G12S was greater than 6.30 throughout.

Regarding `CN(C)C/C=C/C(=O)N1CC(CN2CCOc3c(Cl)c(-c4ccc(F)c5sc(N)c(C#N)c45)c(F)c4nc(OC[C@@]56CCCN5C[C@H](F)C6)nc2c34)C1` [Compound 469, 2-amino-4-(8-chloro-4-((1-((E)-4-(dimethylamino)but-2-enoyl)azetidin-3-yl)methyl)-10-fluoro-2-(((2R, 7aS)-2-fluorotetrahydro-1H-pyrrolizin-7a(5H)-yl)methoxy)-5,6-dihydro-4H-[1,4]oxazepino[5,6,7-de]quinazolin-9-yl)-7-fluorobenzo [b]thiophene-3-carbonitrile], the pIC50 on KRAS WT and at KRAS G12S was greater than 6.30 in each case.

For `CC(C)[C@@H]1[C@H](CN2CCOc3c(Cl)c(-c4ccc(F)c5sc(N)c(C#N)c45)c(F)c4nc(OC[C@@]56CCCN5C[C@H](F)C6)nc2c34)CN1C(=O)n1cnc(F)n1` (single isomer, unassigned) [Compound 408], the pIC50 at KRAS WT and at KRAS G12S was greater than 6.30 in each case.

In the case of `C=CC(=O)N1CC[C@@H](N2CCCOc3c(Cl)c(-c4ccc(F)c5sc(N)c(C#N)c45)c(F)c4nc(OC[C@@]56CCCN5C[C@H](F)C6)nc2c34)[C@H]1C` [Compound 411, 4-(4-((2R,3R)-1-acryloyl-2-methylpyrrolidin-3-yl)-9-chloro-11-fluoro-2-(((2R,7aS)-2-fluorotetrahydro-1H-pyrrolizin-7a (5H)-yl)methoxy)-4,5,6,7-tetrahydro-[1,5]oxazocino-[4,3,2-de]quinazolin-10-yl)-2-amino-7-fluorobenzo[b]thiophene-3-carbonitrile], the negative-log IC50 (pIC50) on KRAS WT and at KRAS G12S was greater than 6.30 throughout.

`Cc1cn(C(=O)N2CC[C@@H](N3CCCc4nc(-c5ccc(F)c6sc(N)c(C#N)c56)c(F)c5nc(OC[C@@]67CCCN6C[C@H](F)C7)nc3c45)[C@H]2C)c(C)n1` [Compound 409, 2-amino-4-(10-((2R,3R)-1-(2,4-dimethyl-1H-imidazole-1-carbonyl)-2-methylpyrrolidin-3-yl)-4-fluoro-2-(((2R,7aS)-2-fluorotetrahydro-1H-pyrrolizin-7a (5H)-yl)methoxy)-7,8,9,10-tetrahydro-1,3,6,10-tetraazacyclohepta[de]naphthalen-5-yl)-7-fluorobenzo[b]thiophene-3-carbonitrile]: the pIC50 at KRAS WT and at KRAS G12S was greater than 6.30 in each case.

In the case of `CC#CC(=O)N1C[C@@H](CN2CCOc3c(Cl)c(-c4ccc(F)c5sc(N)c(C#N)c45)c(F)c4nc(OC[C@@]56CCCN5C[C@H](F)C6)nc2c34)[C@H]1C1(C)CC1` [Compound 484, 2-amino-4-(4-(((2S,3R)-1-(but-2-ynoyl)-2-(1-methylcyclopropyl)azetidin-3-yl)methyl)-8-chloro-10-fluoro-2-(((2R,7aS)-2-fluorotetrahydro-1H-pyrrolizin-7a(5H)-yl)methoxy)-5,6-dihydro-4H-[1,4]oxazepino [5,6,7-de]quinazolin-9-yl)-7-fluorobenzo[b]thiophene-3-carbonitrile], the pIC50 at KRAS WT and on KRAS G12S was greater than 6.30 in each case.

As to `C[C@@H]1CCOc2c(Cl)c(-c3ccc(F)c4sc(N)c(C#N)c34)c(F)c3nc(OC[C@@]45CCCN4C[C@H](F)C5)nc(c23)N1CC1CCCN1C(=O)n1ccnc1` (stereo partly drawn) [Compound 414, 4-((5R)-4-((1-(1H-imidazole-1-carbonyl)pyrrolidin-2-yl)methyl)-9-chloro-11-fluoro-2-(((2R,7aS)-2-fluorotetrahydro-1H-pyrrolizin-7a(5H)-yl)methoxy)-5-methyl-4,5,6,7-tetrahydro-[1,5]oxazocino[4,3,2-de]quinazolin-10-yl)-2-amino-7-fluorobenzo[b]thiophene-3-carbonitrile], the negative logarithm of the IC50 (pIC50) on KRAS WT and on KRAS G12S was greater than 6.30 each time.

For `Cc1cn(C(=O)N2CC[C@@H](N3CCCCc4nc(-c5cc(N)c(F)c(C)c5C(F)(F)F)c(F)c5nc(OC[C@@]67CCCN6C[C@H](F)C7)nc3c45)[C@H]2C)c(C)n1` [Compound 438, ((2R,3R)-3-(5-(5-amino-4-fluoro-3-methyl-2-(trifluoromethyl)phenyl)-4-fluoro-2-(((2R,7aS)-2-fluorotetrahydro-1H-pyrrolizin-7a(5H)-yl)methoxy)-7,8,9,10-tetrahydro-11H-1,3,6,11-tetraazacycloocta[de]naphthalen-11-yl)-2-methylpyrrolidin-1-yl)(2,4-dimethyl-1H-imidazol-1-yl)methanone], the negative logarithm of the IC50 (pIC50) on KRAS WT and on KRAS G12S was greater than 6.30 each time.

As to `CC(C)(C)[C@@H]1[C@H](CN2CCOc3c(Cl)c(-c4ccc(F)c5sc(N)c(C#N)c45)c(F)c4nc(OC[C@@]56CCCN5C[C@H](F)C6)nc2c34)CN1C(=O)n1cnc(F)n1` (single isomer, unassigned) [Compound 434], the negative logarithm of the IC50 (pIC50) at KRAS WT and at KRAS G12S was greater than 6.30 throughout.

Values taken from patent US12606572B2, “Substituted heterocycles and uses thereof” (Kumquat Biosciences Inc., priority 2023, dated 2026).
